Source: ChEMBL document CHEMBL5674886, “GLUT4 expression and glucose transport in human induced pluripotent stem cell-derived cardiomyocytes” (PLoS One, 2019)

Experiments:
Type in all cases: cell-based
[1] = molecular target: T1, Solute carrier family 2, facilitated glucose transporter member 4 (Homo sapiens, UniProt P14672); assay: Inhibition of human GLUT4 expressed in CHO cells measured after 15 mins by cell-titer-Glo luminescent cell viability assay
T1 sequence (P14672 whole entry): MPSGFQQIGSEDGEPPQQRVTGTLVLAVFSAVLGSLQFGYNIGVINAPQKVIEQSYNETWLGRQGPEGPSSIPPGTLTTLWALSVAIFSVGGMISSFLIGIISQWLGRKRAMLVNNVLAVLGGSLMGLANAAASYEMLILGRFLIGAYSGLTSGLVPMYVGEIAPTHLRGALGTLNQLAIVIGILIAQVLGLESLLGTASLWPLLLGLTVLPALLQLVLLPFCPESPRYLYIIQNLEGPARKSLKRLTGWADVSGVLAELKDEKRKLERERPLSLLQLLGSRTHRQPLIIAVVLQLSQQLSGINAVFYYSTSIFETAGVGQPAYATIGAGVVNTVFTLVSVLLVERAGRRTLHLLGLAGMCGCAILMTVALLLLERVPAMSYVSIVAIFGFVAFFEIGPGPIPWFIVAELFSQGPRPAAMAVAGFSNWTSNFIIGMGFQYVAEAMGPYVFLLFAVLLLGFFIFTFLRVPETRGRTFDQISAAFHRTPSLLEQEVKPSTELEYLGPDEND

[2] = molecular target: T2, Solute carrier family 2, facilitated glucose transporter member 1 (Mus musculus) (UniProt P17809); assay: Inhibition of GLUT1 in mouse 3T3-L1 cells assessed as reduction in insulin-stimulated [3H]-2-deoxyglucose uptake at 2 uM incubated for 30 mins by [3H]-2-deoxyglucose uptake assay
T2 sequence (whole entry): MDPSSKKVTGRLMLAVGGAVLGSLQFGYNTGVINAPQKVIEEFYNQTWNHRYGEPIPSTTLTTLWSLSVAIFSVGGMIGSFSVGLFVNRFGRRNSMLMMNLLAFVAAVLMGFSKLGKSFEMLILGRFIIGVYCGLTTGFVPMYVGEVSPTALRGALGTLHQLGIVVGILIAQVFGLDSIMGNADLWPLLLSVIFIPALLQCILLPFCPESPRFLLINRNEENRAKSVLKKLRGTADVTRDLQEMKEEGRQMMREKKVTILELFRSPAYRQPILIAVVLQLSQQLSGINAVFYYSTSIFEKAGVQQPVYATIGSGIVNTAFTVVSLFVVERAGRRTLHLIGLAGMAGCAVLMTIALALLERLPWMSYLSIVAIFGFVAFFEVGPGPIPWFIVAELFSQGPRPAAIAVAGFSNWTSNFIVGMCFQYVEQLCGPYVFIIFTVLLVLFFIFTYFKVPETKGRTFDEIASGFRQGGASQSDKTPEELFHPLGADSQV

[3] = molecular target: T2, Solute carrier family 2, facilitated glucose transporter member 1 (Mus musculus); assay: Inhibition of GLUT1 in mouse 3T3-L1 cells assessed as reduction in insulin-stimulated [3H]-2-deoxyglucose uptake at 20 nM incubated for 30 mins by [3H]-2-deoxyglucose uptake assay

inhibition [2]: 100% | inhibition [3]: 25%
SMILES: Cc1c(NC(=O)c2cc(C(N)=O)nc3cc(F)ccc23)c(C(F)(F)F)nn1Cc1ccc(C#N)cc1 [BAY-876]
IC50 [1]: 200 nM
